Experimental findings from US10487071B2, “Bis-triazole compounds with anti-biofilm and anti-corrosion properties” (Université de Toulon, priority 2015, dated 2019) are described below.

Assay [1] concerns Pseudoalteromonas ulvae (TC14). Nature of the assay: Anti-adhesion test, strain TC14. The format is cell-based. Particulars: Pseudoalteromonas ulvae; for activity at 200 µM: 15 h; for EC50: read-out: EC50 (effective concentration to inhibit 50% of the adhesion). The protocol: (§1) Bacterial strains were grown on Väätänen nine-salts solution (VNSS). When the stationary phase was reached, the bacterial suspension was centrifuged. Cells were then diluted in sterile artificial sea water (ASW) and introduced in microtiter plates (sterile black PS; Nunc, Fisher Scientific, France) with the tested compound (at eight concentrations in three replicates) in the presence of three controls: (i) non-specific staining control, (ii) adhesion control, and (iii) positive control. The maximum percentage of solvent (DMSO 2%) used to dilute the tested compound was also tested in triplicate as additional control. After incubation during an optimized adhesion time (moderately 15 h), non-adhered bacteria were eliminated and adhered cells were quantified after SYTO 61 (1 μM) staining. A percentage of inhibition was calculated per well. A sigmoid dose-response curve was obtained by plotting the percentage of inhibition as a function of the log of tested compound concentration, after mean (n=3) and standard deviation (SD) calculation per triplicate for each concentration. EC50 values were then calculated for each compound.
Pseudoalteromonas ulvae (TC14) was isolated in June 2010 in the Military Harbor of Toulon (Mediterranean Sea, France) as described in F. Brian-Jaisson, A. Ortalo-Magné, L. Guentas-Dombrowsky, F. Armougom, Y. Blache, M. Molmeret, Microb. Ecol., 2014, 68, 94-110.

Assay [2] has as its system Pseudoalteromonas lipolytica (TC8). Description: Anti-adhesion test, strain TC8. The class given is cell-based. Particulars: Pseudoalteromonas lipolytica; for activity at 200 µM: 15 h, read-out: % of adhesion at 200 μM, TC8; for EC50: read-out: EC50 (effective concentration to inhibit 50% of the adhesion), TC8. How it is done:
(§2) The anti-adhesion bioassays and toxicity tests are adapted from those disclosed in M. Camps, J.-F. Briand, L. Guentas-Dombrowsky, G. Culioli, A. Bazire and Y. Blache, Mar. Poll.
as §1

For the next assay, the system named is Paracoccus sp. (4M6). Description: Anti-adhesion test, strain 4M6. The format is cell-based. Particulars: Paracoccus; for activity at 200 µM: 15 h, read-out: % of adhesion at 200 μM, 4M6; for EC50: read-out: EC50 (effective concentration to inhibit 50% of the adhesion), 4M6. How it is done:
as §2, §1

In a further assay the test system is Polaribacter sp. (TC5). Nature of the assay: Anti-adhesion test, strain TC5. Particulars: for activity at 200 µM: 15 h; for EC50: read-out: EC50 (effective concentration to inhibit 50% of the adhesion). The class given is cell-based. How it is done: as §1
Polaribacter sp. (TC5) was isolated in June 2010 in the Military Harbor of Toulon (Mediterranean Sea, France) as described in F. Brian-Jaisson, A. Ortalo-Magné, L. Guentas-Dombrowsky, F. Armougom, Y. Blache, M. Molmeret, Microb. Ecol., 2014, 68, 94-110.

The test system of another assay is Shewanella sp. (TC11). Nature of the assay: Anti-adhesion test, strain TC11. Particulars: for activity at 200 µM: 15 h, strain TC11, read-out: % of adhesion at 200 μM, TC11; for EC50: read-out: EC50 (effective concentration to inhibit 50% of the adhesion), strain TC11. The format is cell-based. How it is done: as §1
Shewanella sp. (TC11) was isolated in June 2010 in the Military Harbor of Toulon (Mediterranean Sea, France) as described in F. Brian-Jaisson, A. Ortalo-Magné, L. Guentas-Dombrowsky, F. Armougom, Y. Blache, M. Molmeret, Microb. Ecol., 2014, 68, 94-110.

The nature of assay [3]: Gravimetry (weight loss), corrosion inhibition. Particulars: mild steel in 1N HCl. The protocol: The corrosion rates were determined by electrochemical impedance spectroscopy measurements and gravimetry.
Weight loss measurements were performed on 2.5×2.0×0.1 cm rectangular mild steel coupons. The mild steel coupons were immersed into non-de-aerated HCl 1N solution in absence and presence of different concentrations of compounds of general formula (I). After the elapsed time, the coupons were taken out, washed, dried and weighed accurately. Experiments were duplicated.
Weight loss experiments were done to confirm the corrosion inhibitive properties of AS164.
The inhibition efficiency, IE (%), was estimated from the weight loss experiments using the following equation:
[formula] wherein CR^o and CR are respectively the corrosion rate in the absence and presence of AS164.

Take `CN(C)CCOc1ccc(CCn2cc(-c3ccc(-c4cn(CCc5ccc(OCCN(C)C)c(Cl)c5)nn4)cc3)nn2)cc1Cl` [SA63, 2-(4-(2-(4-(4-(1-(4-(2-(dimethylamino)ethoxy)-3-chlorophenethyl)-1H-1,2,3-triazol-4-yl)phenyl)-1H-1,2,3-triazol-1-yl)ethyl)-2-chlorophenoxy)-N,N-dimethylethanamine]: the activity at 200 µM in assay [1] came to 30.6 ± 5.3%; in assay [2] it was 29 ± 3.2%; with Paracoccus sp. (4M6), 43.6 ± 3.3%; with Polaribacter sp. (TC5), 37.3 ± 6%; in the assay on Shewanella sp. (TC11), 37 ± 1%. Besides, the EC50 is 122 ± 10.7 µM in assay [1]; 138 ± 10.6 µM in assay [2]; 96.6 ± 36.2 µM in the assay with Paracoccus sp. (4M6); 133 ± 9.2 µM with Polaribacter sp. (TC5); 136 ± 5.1 µM with Shewanella sp. (TC11). For the same compound, the IE % in assay [3] (0.1 ppm) worked out at 90.68%; in assay [3] (0.3 ppm), 95.02%; in assay [3] (0.5 ppm), 95.82%; in assay [3] (2 ppm), 95.98%; in assay [3] (10 ppm) it was 96.95%.

Turning to `COc1ccc(Cn2cc(-c3ccc(-c4cn(Cc5ccc(OC)c(Br)c5)nn4)cc3)nn2)cc1Br` [SA8, 1-(3-bromo-4-methoxybenzyl)-4-(4-(1-(3-bromo-4-methoxybenzyl)-1H-1,2,3-triazol-4-yl)phenyl)-1H-1,2,3-triazole], the activity at 200 µM worked out at 23.3 ± 3.8% in assay [1]; 24.1 ± 2.6% in assay [2]; 33.1 ± 4.4% in the assay on Paracoccus sp. (4M6); 38.3 ± 0.1% in the assay on Polaribacter sp. (TC5); 16.4 ± 8% in the assay with Shewanella sp. (TC11). The EC50 was 99.5 ± 4.5 µM in assay [1]; 159 ± 28.5 µM in assay [2]; 163 ± 23.6 µM with Paracoccus sp. (4M6); 152 ± 6.7 µM in the assay with Polaribacter sp. (TC5); 122 ± 7.1 µM with Shewanella sp. (TC11).

Consider `CN(C)CCOc1ccc(-n2cc(-c3ccc(-c4cn(-c5ccc(OCCN(C)C)cc5)nn4)cc3)nn2)cc1` [SA61, 2-(4-(4-(4-(1-(4-(2-(dimethylamino)ethoxy)phenyl)-1H-1,2,3-triazol-4-yl)phenyl)-1H-1,2,3-triazol-1-yl)phenoxy)-N,N-dimethylethanamine], for which the activity at 200 µM in assay [1] was determined as 47.8 ± 1.7%; in assay [2], 45.6 ± 1.2%; in the assay with Paracoccus sp. (4M6), 40.2 ± 0.3%; with Polaribacter sp. (TC5), 89.4 ± 0.8%; with Shewanella sp. (TC11), 19.3 ± 16.9%. In addition, the EC50 was 194 ± 13.7 µM in assay [1], 184.4 ± 0.6 µM in assay [2], 179 ± 44.9 µM with Paracoccus sp. (4M6) and 140 ± 63.5 µM in the assay on Shewanella sp. (TC11). Further, the IE % is listed as 87.42% in assay [3] (0.1 ppm); 91.92% in assay [3] (0.3 ppm); 94.34% in assay [3] (0.5 ppm); 95.55% in assay [3] (2 ppm); 95.93% in assay [3] (10 ppm).

Regarding `CN(C)CCCOc1ccc(-n2cc(-c3ccc(-c4cn(-c5ccc(OCCCN(C)C)c(Br)c5)nn4)cc3)nn2)cc1Br` [SA66, 3-(4-(4-(4-(1-(4-(3-(dimethylamino)propoxy)-3-bromophenyl)-1H-1,2,3-triazol-4-yl)phenyl)-1H-1,2,3-triazol-1-yl)-2-bromophenoxy)-N,N-dimethylpropan-1-amine], the activity at 200 µM in assay [1] was 19 ± 6.5%; in assay [2], 31.7 ± 2.2%; with Paracoccus sp. (4M6), 24.5 ± 6.9%; in the assay on Polaribacter sp. (TC5), 23.3 ± 4%; with Shewanella sp. (TC11), 45.5 ± 1.1%. In addition, the EC50 in assay [1] was determined as 104 ± 4.6 µM; in assay [2], 141 ± 16.5 µM; in the assay with Paracoccus sp. (4M6), 44.2 ± 25.2 µM; in the assay on Polaribacter sp. (TC5), 50.2 ± 10.9 µM; in the assay on Shewanella sp. (TC11), 165 ± 37.8 µM. Further, the IE % is reported as 85.79% in assay [3] (0.1 ppm); 88.30% in assay [3] (0.3 ppm); 90.41% in assay [3] (0.5 ppm); 95.16% in assay [3] (2 ppm); 96.48% in assay [3] (10 ppm).

As for `CN(C)CCCOc1ccc(CCn2cc(-c3ccc(-c4cn(CCc5ccc(OCCCN(C)C)c(Cl)c5)nn4)cc3)nn2)cc1Cl` [SA64, 3-(4-(2-(4-(4-(1-(4-(3-(dimethylamino)propoxy)-3-chlorophenethyl)-1H-1,2,3-triazol-4-yl)phenyl)-1H-1,2,3-triazol-1-yl)ethyl)-2-chlorophenoxy)-N,N-dimethylpropan-1-amine], the activity at 200 µM in assay [1] turned out to be 28.4 ± 14%; in assay [2], 20.2 ± 21.1%; in the assay with Paracoccus sp. (4M6), 31 ± 12.4%; in the assay with Polaribacter sp. (TC5) it was 42.9 ± 4.5%; in the assay with Shewanella sp. (TC11) it was 42.6 ± 5.6%. Besides, the EC50 in assay [1] worked out at 147 ± 14.4 µM; in assay [2] it was 121 ± 76.8 µM; in the assay with Paracoccus sp. (4M6) it was 43.3 ± 14.6 µM; in the assay with Polaribacter sp. (TC5) it was 150 ± 8.1 µM; in the assay with Shewanella sp. (TC11) it was 152 ± 20.4 µM. For the same compound, the IE % worked out at 90.59% in assay [3] (0.1 ppm); 94.18% in assay [3] (0.3 ppm); 95.90% in assay [3] (0.5 ppm); 96.37% in assay [3] (2 ppm); 96.64% in assay [3] (10 ppm).

As for `CN(C)CCCOc1ccc(CCCn2cc(-c3ccc(-c4cn(CCCc5ccc(OCCCN(C)C)c(Br)c5)nn4)cc3)nn2)cc1Br` [SA32, 3-(4-(3-(4-(4-(1-(3-(4-(3-(dimethylamino)propoxy)-3-bromophenyl)propyl)-1H-1,2,3-triazol-4-yl)phenyl)-1H-1,2,3-triazol-1-yl)propyl)-2-bromophenoxy)-N,N-dimethylpropan-1-amine], the activity at 200 µM turned out to be 34.3 ± 2.6% in assay [1]; 17.7 ± 11.1% in assay [2]; 26.7 ± 5.6% in the assay on Paracoccus sp. (4M6); 53.4 ± 13.8% in the assay with Polaribacter sp. (TC5); 17.4 ± 2.9% in the assay on Shewanella sp. (TC11). The EC50 in assay [1] is 115 ± 20.5 µM; in assay [2] it was 109 ± 37.2 µM; in the assay on Paracoccus sp. (4M6) it was 3.1 ± 8.6 µM; with Polaribacter sp. (TC5) it was 114 ± 28.6 µM; in the assay on Shewanella sp. (TC11), 61.1 ± 18.5 µM. In addition, the IE % in assay [3] (0.1 ppm) was determined as 79.01%; in assay [3] (0.3 ppm), 95.43%; in assay [3] (0.5 ppm), 96.30%; in assay [3] (2 ppm), 96.54%; in assay [3] (10 ppm), 95.58%.

With `CN(C)CCCOc1ccc(CCn2cc(COCc3cn(CCc4ccc(OCCCN(C)C)c(Br)c4)nn3)nn2)cc1Br` [AS173, 3-(4-(2-(4-(((1-(4-(3-(dimethylamino)propoxy)-3-bromophenethyl)-1H-1,2,3-triazol-4-yl)methoxy)methyl)-1H-1,2,3-triazol-1-yl)ethyl)-2-bromophenoxy)-N,N-dimethylpropan-1-amine], the activity at 200 µM in assay [1] stood at 41.7 ± 1.6%; in assay [2] it was 51.6 ± 1%; in the assay on Paracoccus sp. (4M6) it was 53.7 ± 4%. Further, the EC50 in assay [1] was found to be 122 ± 59.1 µM. In addition, the IE % in assay [3] (0.1 ppm) was 46.78%; in assay [3] (0.3 ppm) it was 86.70%; in assay [3] (0.5 ppm) it was 92.47%; in assay [3] (2 ppm) it was 95.77%; in assay [3] (10 ppm), 97.95%.

Take `CN(C)CCOc1ccc(CCn2cc(CCCCCCc3cn(CCc4ccc(OCCN(C)C)c(Br)c4)nn3)nn2)cc1Br` [AS160, 2-(4-(2-(4-(6-(1-(4-(2-(dimethylamino)ethoxy)-3-bromophenethyl)-1H-1,2,3-triazol-4-yl)hexyl)-1H-1,2,3-triazol-1-yl)ethyl)-2-bromophenoxy)-N,N-dimethylethanamine]: the activity at 200 µM in assay [1] stood at 67.4 ± 4%; in assay [2], 54.3 ± 10.8%; in the assay with Paracoccus sp. (4M6) it was 59.5 ± 2.2%. For the same compound, the IE % in assay [3] (0.1 ppm) worked out at 71.40%; in assay [3] (0.3 ppm), 92.14%; in assay [3] (0.5 ppm), 92.66%; in assay [3] (2 ppm) it was 96.06%; in assay [3] (10 ppm) it was 97.03%.
